Type in all cases: physicochemical
The nature of series [1]: Heat resistance of near infrared ray absorption filter (ΔEab before/after heating). To be noted: filter 1.0 μm, 7.5 mass % compound; 260° C. for 30 minutes on hot plate; ΔEab class. Here is the method:
(§1) Compositions below were mixed so as to prepare the composition. A solid content of the composition is 31 mass % and a content of the near infrared ray absorption substance with respect to the total solid content of the composition was 7.5 mass %.
(§2) Glass substrates (1737 manufactured by Corning Incorporated) were coated with respective compositions by using a spin coater such that film thicknesses after drying become 1.0 μm, and a heating treatment (prebaking) was performed for 120 seconds by using a hot plate of 100° C.
(§3) Subsequently, beta exposure was performed by 500 mJ/cm^2 by using an i-ray stepper exposure device FPA-3000i5+ (manufactured by Canon Inc.). Subsequently, puddle development was performed at 23° C. for 60 seconds by using CD-2060 (manufactured by Fujifilm Electronic Materials), a rinse treatment was performed with pure water on a glass substrate on which a beta coloration layer was formed, and spray drying was performed.
(§4) The heating treatment (post baking) was performed for 300 seconds by using a hot plate of 200° C., so as to obtain a near infrared ray absorption filter.
After the near infrared ray absorption filter was heated to 260° C. for 30 minutes by a hot plate, the ΔEab value of a color difference before and after heat resistance test was measured using a color meter MCPD-1000 (manufactured by Otsuka Electronics Co., Ltd.), so as to evaluate a criterion below. A smaller ΔEab value indicates more satisfactory heat resistance.

Series [2] is described as follows: Light fastness of near infrared ray absorption filter (ΔEab before/after xenon lamp). To be noted: filter 1.0 μm, 7.5 mass % compound; xenon lamp 50,000 lux for 20 hours; ΔEab class. Here is the method:
as §1, §2, §3, §4
After the near infrared ray absorption filter was irradiated with a xenon lamp was applied by 50,000 lux for 20 hours (corresponding to 1,000,000 lux·h), an ΔEab value of a color difference before and after a light-fast test was measured. A smaller ΔEab value indicates more satisfactory light fastness.
The ΔEab value is a value obtained from a color difference equation below according to a CIE 1976 (L*, a*, b*) space color system (Handbook of Color Science, New Edition, edited by the Color Science Association of Japan, (1985), p. 266). ΔEab={(ΔL*)^2[…](Δa*)^2+(Δb*)^2}^1/2

The nature of series [3]: Evaluation of maximum absorption wavelength, half-width and absorbance ratio (liquid absorption spectrum). As to conditions: measuring solvent chloroform; 2.5×10^−6 mol/L; optical path length 10 mm. Here is the method:
—Evaluation of Maximum Absorption Wavelength, Half-Width, and Absorbance Ratio—Respective compounds were dissolved in measuring solvents (concentration: 2.5×10^−6 mol/L) described in the table below so as to measure an absorption spectrum (Optical path length: 10 mm).
Maximum absorption wavelengths (λmax) of absorption spectrums, half-widths of the maximum absorption wavelengths, and absorbance ratios (550 nm/λmax) which are values obtained by dividing absorbance at a wavelength of […] by absorbance at the maximum absorption wavelength with respect to respective compounds are presented in Table 1 below. FIG. 3 illustrates an absorption spectrum of the compound D-1 in chloroform.

Assay in series [4]: as above
To be noted: measuring solvent chloroform; 2.5×10^−6 mol/L; optical path length 10 mm. This is another data set of the same source.

Series [5] can be described thus: Solubility of the compound to propylene glycol monomethyl ether acetate. As to conditions: visually observed. The text has this:
Solubility of the compound to propylene glycol monomethyl ether acetate was visually observed.

As for `CC(CCC(COc1cccc(-c2c3/c(=C(\C#N)c4cnc5cc(Cl)c(Cl)cc5n4)n(B(c4ccccc4)c4ccccc4)c(-c4cccc(OCC(CCC(C)CC(C)(C)C)C(C)CC(C)(C)C)c4)c3/c(=C(\C#N)c3cnc4cc(Cl)c(Cl)cc4n3)n2B(c2ccccc2)c2ccccc2)c1)C(C)CC(C)(C)C)CC(C)(C)C` [Compound D-32], the Heat resistance in series [1] was 5 (ΔEab value<3). Moreover, the Light fastness in series [2] is 5 (ΔEab value<3). Moreover, in series [3], the Half-width is given as 28 nm and the Maximum absorption wavelength is listed as 884 nm. Also, in series [4], the “Absorbance ratio (550 nm/λmax)” value came to 0.01. Besides, the Solubility entry in series [5] is given as “A (Solubility 2% or greater)”.
Regarding `COc1ccc2oc(/C(C#N)=c3/c4c(-c5cccc(OCC(CCC(C)CC(C)(C)C)C(C)CC(C)(C)C)c5)n(B(c5ccccc5)c5ccccc5)/c(=C(/C#N)c5nc6cc(C)ccc6o5)c4c(-c4cccc(OCC(CCC(C)CC(C)(C)C)C(C)CC(C)(C)C)c4)n3B(c3ccccc3)c3ccccc3)nc2c1` [Compound D-43], the Heat resistance in series [1] is 5 (ΔEab value<3). In addition, in series [2], the Light fastness is listed as 5 (ΔEab value<3). Further, in series [3], the Half-width is 30 nm and the Maximum absorption wavelength is reported as 748 nm. Further, the “Absorbance ratio (550 nm/λmax)” value in series [4] is recorded as 0.003. Also, in series [5], the Solubility result is on record as “A (Solubility 2% or greater)”.
Take `CCCCCCCCC(CCCCCC)COc1ccc(-c2c3/c(=C(\C#N)c4cnc5cc(Cl)c(Cl)cc5n4)n(B(c4ccccc4)c4ccccc4)c(-c4ccc(OCC(CCCCCC)CCCCCCCC)cc4)c3/c(=C(\C#N)c3cnc4cc(Cl)c(Cl)cc4n3)n2B(c2ccccc2)c2ccccc2)cc1` (stereo not drawn) [Compound E-1, reference compound]: the Heat resistance in series [1] is 5 (ΔEab value<3). Moreover, the Light fastness in series [2] is 5 (ΔEab value<3). For the same molecule, in series [3], the Half-width came out at 31 nm and the Maximum absorption wavelength stood at 884 nm. For the same molecule, the “Absorbance ratio (550 nm/λmax)” value in series [4] stood at 0.019. Also, the Solubility entry in series [5] is “C (Solubility less than 0.5%)”.

The values above are taken from patent publication US10273251B2, “Composition, cured film, near infrared ray absorption filter, solid-state imaging device, infrared sensor, and compound” (FUJIFILM Corporation, priority 2014, dated 2019).
